# Measurements from publication PMC9979163, “Discovery and functional characterization of N-(thiazol-2-yl)-benzamide analogs as the first class of selective antagonists of the Zinc-Activated Channel (ZAC)” (Biochemical pharmacology, 2021).
# What was measured:
# m5-HT3AR = target: T1, m5-HT3AR (Mus musculus, UniProt P23979); assay: TEVC selectivity, m5-HT3AR in oocytes; assay type: cell-based; settings: 30 μM, 30 s preapplication, 2 μM 5-HT (EC20–EC40)
# T1 sequence (P23979 24-489): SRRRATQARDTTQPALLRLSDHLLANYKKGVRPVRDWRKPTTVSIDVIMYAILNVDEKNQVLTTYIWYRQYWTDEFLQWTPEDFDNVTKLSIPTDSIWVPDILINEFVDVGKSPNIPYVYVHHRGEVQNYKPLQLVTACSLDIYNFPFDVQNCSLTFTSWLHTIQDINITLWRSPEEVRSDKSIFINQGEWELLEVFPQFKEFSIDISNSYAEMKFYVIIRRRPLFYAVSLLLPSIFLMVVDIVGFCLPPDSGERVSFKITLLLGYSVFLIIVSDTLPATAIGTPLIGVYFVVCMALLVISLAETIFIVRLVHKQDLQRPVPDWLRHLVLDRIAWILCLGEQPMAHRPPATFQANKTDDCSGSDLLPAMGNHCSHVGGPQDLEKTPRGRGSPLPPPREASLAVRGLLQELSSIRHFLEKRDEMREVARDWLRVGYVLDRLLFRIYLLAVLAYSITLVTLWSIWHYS
# Experimental: (§1) The cDNAs for the various WT and chimeric CLR subunits were linearized and subsequently transcribed and capped mMessage mMachine T7 RNA transcription kit (Ambion, Waltham, MA). […]
# (§2) On the day of experiment, all compound dilutions were prepared in a saline solution [115 mM NaCl, 2.5 mM KCl, 10 mM MOPS (pH 7.5), 1.8 mM CaCl2, 0.1 mM MgCl2] and pH adjusted to 7.5 (if needed). […] Currents were recorded using pCLAMP 10 (Molecular Devices, Sunnyvale, CA). […]
# (§3) In all recordings, the compounds or compound combinations were applied in the bath until the peak current decayed to a steady state (up to 30 sec at the most). […] The functional properties of the modulators at the CLRs were determined by pre-application of the modulator to the perfusate 30 sec and followed by co-application of the modulator and the agonist to the perfusate. […]
# (§4) Data analysis of the results from the TEVC recordings were performed using Clampfit software version 10.5 (Molecular Devices, Crawley, UK) and GraphPad Prism version 7.0c (GraphPad Software, Inc. La Jolla, CA). […] I-V relationships were analyzed by fitting the curves with a third order polynomial model. […]
# hα3β4 nAChR = hα3β4 nAChR (Homo sapiens, UniProt P30926+P32297); assay: TEVC selectivity, hα3β4 nAChR in oocytes; assay type: cell-based; settings: 30 μM, 30 s preapplication, 3 μM (S)-nicotine (EC20–EC40)
# hα3β4 nAChR, sequence (P32297 32-505): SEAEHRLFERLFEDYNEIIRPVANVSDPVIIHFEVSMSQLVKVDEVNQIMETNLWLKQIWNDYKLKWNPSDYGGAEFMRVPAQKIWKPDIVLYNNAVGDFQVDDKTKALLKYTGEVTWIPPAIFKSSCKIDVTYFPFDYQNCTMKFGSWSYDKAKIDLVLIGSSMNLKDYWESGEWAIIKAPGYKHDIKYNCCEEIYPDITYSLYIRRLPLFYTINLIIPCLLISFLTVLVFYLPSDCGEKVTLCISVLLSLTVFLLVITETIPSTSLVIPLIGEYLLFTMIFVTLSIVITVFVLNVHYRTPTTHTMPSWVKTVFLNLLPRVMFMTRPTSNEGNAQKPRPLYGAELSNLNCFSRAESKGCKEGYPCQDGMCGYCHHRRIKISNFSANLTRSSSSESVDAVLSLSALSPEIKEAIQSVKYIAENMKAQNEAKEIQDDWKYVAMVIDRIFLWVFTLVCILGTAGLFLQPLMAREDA
# hα3β4 nAChR, sequence (P30926 22-498): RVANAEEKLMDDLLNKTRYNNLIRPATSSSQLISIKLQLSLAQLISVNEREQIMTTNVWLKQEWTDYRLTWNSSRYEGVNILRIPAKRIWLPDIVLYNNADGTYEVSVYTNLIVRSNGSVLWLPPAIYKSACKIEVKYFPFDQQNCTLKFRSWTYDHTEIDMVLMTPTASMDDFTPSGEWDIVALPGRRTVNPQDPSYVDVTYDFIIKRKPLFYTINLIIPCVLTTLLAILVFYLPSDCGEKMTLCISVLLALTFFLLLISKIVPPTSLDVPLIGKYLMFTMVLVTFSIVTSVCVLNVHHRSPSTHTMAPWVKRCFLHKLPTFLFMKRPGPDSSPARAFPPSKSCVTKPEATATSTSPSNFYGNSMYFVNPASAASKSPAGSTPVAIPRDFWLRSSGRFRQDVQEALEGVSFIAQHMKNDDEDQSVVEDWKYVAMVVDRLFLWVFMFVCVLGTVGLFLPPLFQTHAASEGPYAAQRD
# Experimental: as §1, §2, §3, §4
# ZAC/hα1-Gly = assay: TEVC, chimeric ZAC/hα1-Gly receptor in oocytes; assay type: cell-based, human; settings: 30 μM, EC20–EC40 Zn2+
# Experimental: as §1, §2, §3, §4
# Solubility (remark) = assay type: physicochemical
# h5-HT3A = target: T2, h5-HT3A (Homo sapiens, UniProt P46098); assay: FMP assay at h5-HT3A-HEK293 cells; assay type: cell-based; settings: concentrations up to 100 μM, data not shown
# T2 construct: expressed in transfected cells
# T2 sequence (P46098 24-478): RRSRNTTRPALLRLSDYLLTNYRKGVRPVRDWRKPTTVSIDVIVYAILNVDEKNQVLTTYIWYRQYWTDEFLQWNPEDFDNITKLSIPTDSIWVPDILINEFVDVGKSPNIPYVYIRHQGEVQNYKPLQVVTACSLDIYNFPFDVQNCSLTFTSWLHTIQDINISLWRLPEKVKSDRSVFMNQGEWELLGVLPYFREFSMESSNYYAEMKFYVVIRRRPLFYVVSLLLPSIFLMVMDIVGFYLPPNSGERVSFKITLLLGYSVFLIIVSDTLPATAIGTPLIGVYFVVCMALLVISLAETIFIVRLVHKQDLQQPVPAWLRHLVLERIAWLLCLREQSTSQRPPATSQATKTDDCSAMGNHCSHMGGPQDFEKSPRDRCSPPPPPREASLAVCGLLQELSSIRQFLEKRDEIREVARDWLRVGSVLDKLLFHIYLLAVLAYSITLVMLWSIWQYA
# rα3β4-nAChR = target: T3, rα3β4-nAChR (Rattus norvegicus, UniProt P04757+P12392); assay: FMP assay at rα3β4-nAChR-HEK293 cells ((S)-nicotine-induced response); assay type: cell-based; settings: concentrations up to 100 μM, data not shown
# T3 construct: expressed in transfected cells
# T3 sequence (P04757 26-499): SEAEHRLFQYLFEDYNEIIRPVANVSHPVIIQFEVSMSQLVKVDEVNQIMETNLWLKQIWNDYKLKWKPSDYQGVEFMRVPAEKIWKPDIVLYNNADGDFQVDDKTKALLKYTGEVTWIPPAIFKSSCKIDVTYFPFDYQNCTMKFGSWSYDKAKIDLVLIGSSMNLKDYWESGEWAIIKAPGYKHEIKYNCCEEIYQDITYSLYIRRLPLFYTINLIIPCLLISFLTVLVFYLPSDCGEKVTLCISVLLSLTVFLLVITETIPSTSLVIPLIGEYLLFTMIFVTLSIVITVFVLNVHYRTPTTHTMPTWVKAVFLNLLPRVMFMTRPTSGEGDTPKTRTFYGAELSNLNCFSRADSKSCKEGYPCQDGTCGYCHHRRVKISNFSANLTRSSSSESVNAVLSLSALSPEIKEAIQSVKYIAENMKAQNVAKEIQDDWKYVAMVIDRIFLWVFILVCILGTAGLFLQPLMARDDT
# T3 sequence (P12392 22-495 limits assumed): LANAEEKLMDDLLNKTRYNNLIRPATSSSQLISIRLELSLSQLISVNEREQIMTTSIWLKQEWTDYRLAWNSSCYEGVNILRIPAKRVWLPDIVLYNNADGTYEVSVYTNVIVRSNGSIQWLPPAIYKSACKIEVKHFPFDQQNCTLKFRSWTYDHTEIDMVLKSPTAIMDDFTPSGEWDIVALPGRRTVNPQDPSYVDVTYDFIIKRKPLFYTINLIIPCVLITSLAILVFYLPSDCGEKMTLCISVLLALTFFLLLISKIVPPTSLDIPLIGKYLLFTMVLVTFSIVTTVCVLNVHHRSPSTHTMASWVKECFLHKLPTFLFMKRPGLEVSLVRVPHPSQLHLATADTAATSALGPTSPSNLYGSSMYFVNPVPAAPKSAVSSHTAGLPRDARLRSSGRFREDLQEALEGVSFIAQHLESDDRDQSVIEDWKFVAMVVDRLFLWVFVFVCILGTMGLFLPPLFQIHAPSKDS
SMILES,"Agonist, antagonist or PAM activity (m5-HT3AR)","Agonist, antagonist or PAM activity (hα3β4 nAChR)",Modulation of Zn2+-induced response (ZAC/hα1-Gly),Solubility (in words) (Solubility (remark)),Effect on 5-HT-induced response (h5-HT3A),Effect on (S)-nicotine-induced response (rα3β4-nAChR)
"CC(C)(C)c1csc(NC(=O)c2cccc(F)c2)n1 [5a, N-(4-(tert-butyl)thiazol-2-yl)-3-fluorobenzamide]",did not display significant activity,did not display significant activity,negligible effect,limited solubility,,
"COC(=O)c1sc(NC(=O)c2cc(Br)ccc2Cl)nc1C [compound 1, 2-(5-bromo-2-chlorobenzamido)-4-methylthiazole-5-methyl ester]",,,,,did not affect,did not affect
